Measurements from patent publication US11656221B2, “Methods to identify modulators of actin-binding proteins” (Regents of the University of Minnesota, priority 2019, dated 2023).
Entries after “also recorded” stand apart in the source; their conditions may differ.

Assays:
[1] = target: T1, GFP-ABD-L253P and mCherry (non-specific FRET) in HEK293-6E cells (Homo sapiens, UniProt O15020, L253P); assay: Counter FRET assay, non-specific FRET (GFP-ABD-L253P plus mCherry); type: cell-based; details: swinholide A 3 μM
T1 construct: L252P β-III-spectrin (human) ABD residues 1-284; expressed in transfected cells; host or cells: HEK293-6E, pTT5 vector, transient
Method: At 2×10^6 cells/mL, HEK293-6E cells were transfected with GFP-ABD (2.4 μg), Lifeact-mCherry (2.4-16.8 μg), mCherry (1.2-16.8 μg), and/or pTT5 (0.8-17.6 μg) using the 293fectin protocol (Thermo Fisher Scientific) with 20 μg total DNA. The cells were harvested 24 hours later by centrifugation at 100×g for 5 min, and then washed twice with PBS. Cell viability and concentration were determined using trypan blue assay and a Countess cell counter (Invitrogen).
Using a Multidrop Combi liquid dispenser (Thermo Fisher Scientific), 10^6 cells/mL were dispersed into 1536-well and 384-well plates as 5 or 50 μL aliquots, respectively. For control and tool compound plates, 100 nL of DMSO or potential tool compound was loaded using the Mantis (Formulatrix). […] Two to three hours after sample loading, fluorescence lifetime measurements were performed using high-throughput fluorescence plate-readers provided by Photonic Pharma LLC (MN, USA), including one detecting fluorescence lifetime and another detecting fluorescence spectra, as described previously.
To develop a biosensor that monitors the binding of mutant L253P β-III-spectrin to actin filaments in live cells, a fluorescence resonance energy transfer (FRET) approach was tested. […] To measure the non-specific component to our FRET readout, we concurrently tested expression of mCherry in place of Lifeact-mCherry. […]

[2] = target: T2, ABD-L253P (L253P β-III-spectrin ABD) binding to F-actin (Homo sapiens, UniProt O15020, L253P); assay: F-actin and ABD co-sedimentation assay; details: 3 μM, 1 μM ABD, 1 μM F-actin
T2 construct: His-SUMO (cleaved yes); made in house; host or cells: E. coli BL21(DE3), pE-SUMOpro; actin from rabbit psoas muscle
Method: Actin was purified from acetone powder derived from the psoas muscle of New Zealand white rabbit (Oryctolagus cuniculus). Filamentous (F)-actin was stored for up to 3 days on ice before use in binding assays. Within an hour of the binding assay, the F-actin was clarified at 100,000×g at 4° C. for 10 min prior to setting up binding assays. The L253P β-III-spectrin ABD was expressed in E. coli BL21(DE3) (Novagen). The ABD was purified and the His-SUMO tag proteolytically removed, as previously described, except size-exclusion chromatography was not performed due to the high purity of the ABD protein. Lifeact-mCherry protein was similarly prepared. A Bradford assay was performed to determine clarified F-actin and ABD protein concentrations.
F-actin and ABD binding assays were performed as previously described. In brief, binding assays used 1 μM ABD protein, 1 μM F-actin and 1-50 μM compound (as indicated) or DMSO control for a total reaction volume of 60 μL in F-buffer containing 10 mM Tris, pH 7.5, 150 mM NaCl, 0.5 mM ATP, 2 mM MgCl2, and 1 mM DTT. Following 30 min incubation at room temperature (21° C.). F-actin was pelleted using centrifugation at 100,000×g at 25° C. for 30 min. Unbound ABD in the supernatant was measured following SDS-PAGE and Coomassie blue staining in accord. In addition, control co-sedimentations assays that lacked actin were performed to test if compounds cause ABD aggregation. […] Amount of mCherry was determined by acquiring fluorescence spectrum peak intensity at ˜600 nm using a spectral unmixing plate reader (Fluorescence Innovations, Inc) equipped with a 532 nm laser (Laserglow Technologies, Ontario, Canada) for excitation, 532 nm longpass filter for emission, and PMT for emission detection. The fraction of Lifeact-mCherry bound to F-actin was determined by subtracting from one the fraction of supernatant fluorescence intensity relative to the no-actin control sample, using the following equation: […]

T2 sequence (O15020 1-284 L253P): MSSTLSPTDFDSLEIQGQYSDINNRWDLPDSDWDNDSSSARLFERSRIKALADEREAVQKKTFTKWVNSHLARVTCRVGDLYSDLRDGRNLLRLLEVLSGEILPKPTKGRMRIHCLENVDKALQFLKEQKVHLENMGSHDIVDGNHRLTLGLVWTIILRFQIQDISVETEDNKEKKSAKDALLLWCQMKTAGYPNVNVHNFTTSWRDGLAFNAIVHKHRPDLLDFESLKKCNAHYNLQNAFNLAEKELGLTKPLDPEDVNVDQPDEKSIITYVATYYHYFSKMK
T1 sequence (O15020 1-284 L253P): as above

CO[C@H]1C[C@H](CC[C@H](C)[C@H](O)[C@H](C)[C@H]2OC(=O)/C=C/C(C)=C/C[C@H](O)C[C@@H]3C=CC[C@@H](C[C@H](OC)[C@@H](C)[C@@H](O)C[C@@H](O)[C@H](C)[C@@H]([C@@H](C)[C@@H](O)[C@@H](C)CC[C@H]4C[C@H](OC)C[C@H](C)O4)OC(=O)/C=C/C(C)=C/C[C@H](O)C[C@@H]4C=CC[C@@H](C[C@H](OC)[C@@H](C)[C@@H](O)C[C@@H](O)[C@@H]2C)O4)O3)O[C@@H](C)C1 [swinholide A]
effect on counter (non-specific) FRET [1]: did not significantly alter
effect on ABD-L253P binding to actin [2]: did reduce; also recorded: ablation
effect on ABD-L253P binding to actin ([2]; listed as swiholide A): reduce ABD-L253P binding to actin
